Tests used:
[1] = xn = mol fraction of the nth substance listed

CCCCCCCCn1cc[n+](C)c1.O=S(=O)([N-]S(=O)(=O)C(F)(F)F)C(F)(F)F
Details | viscosity [mPa·s]
308.15 K, 100 kPa | 56.43

Cc1cccc([N+](=O)[O-])c1
Details | viscosity [mPa·s]
308.15 K, 101.33 kPa | 1.692

CCC(C)CO (stereo unspecified)
viscosity [mPa·s]
Details | 298.15 K | 303.15 K | 313.15 K | 323.15 K
101 kPa | 4.868 | – | – | –
101.33 kPa | – | 3.594 | 2.601 | 1.936

N#CCc1ccccc1
Details | viscosity [mPa·s]
298.15 K, 101 kPa | 1.868

CC1CCCCC1 + CCCCO
[1], 303.15 K, 101.33 kPa
Details | viscosity [mPa·s]
x1 = 0.1 | 1.825
x1 = 0.2604 | 1.383
x1 = 0.42 | 1.072
x1 = 0.5788 | 0.854
x1 = 0.7414 | 0.719
x1 = 0.9013 | 0.643
x2 = 0.0995 | 0.6691
x2 = 0.2019 | 0.7305
x2 = 0.3088 | 0.8105
x2 = 0.3988 | 0.89
x2 = 0.5011 | 0.9898
x2 = 0.5989 | 1.122
x2 = 0.6911 | 1.272
x2 = 0.7839 | 1.45
x2 = 0.9179 | 1.858

Cc1cccc([N+](=O)[O-])c1 + Cc1cccc(C)c1
[1], 308.15 K, 101.33 kPa
Details | viscosity [mPa·s]
x2 = 0.1017 | 1.33
x2 = 0.2062 | 1.133
x2 = 0.3032 | 1.014
x2 = 0.4055 | 0.926
x2 = 0.5001 | 0.861
x2 = 0.6028 | 0.785
x2 = 0.6999 | 0.72
x2 = 0.8043 | 0.653
x2 = 0.9007 | 0.59

CCOC(=O)c1ccccc1 + CCCO
viscosity [mPa·s], [1], 101.3 kPa
Details | x1 = 0.0548 | x1 = 0.1155 | x1 = 0.1829 | x1 = 0.2582 | x1 = 0.3431 | x1 = 0.4393 | x1 = 0.5493 | x1 = 0.6763 | x1 = 0.8246
303 K | 1.619 | 1.637 | 1.645 | 1.657 | – | 1.688 | 1.703 | 1.72 | 1.734
308 K | 1.471 | 1.486 | 1.499 | 1.51 | 1.525 | 1.537 | 1.552 | 1.568 | 1.579
313 K | 1.326 | 1.337 | 1.351 | 1.364 | 1.372 | 1.386 | 1.403 | 1.414 | 1.432
318 K | 1.235 | 1.247 | 1.257 | 1.272 | 1.28 | 1.291 | 1.302 | 1.314 | 1.327
323 K | 1.175 | 1.188 | 1.194 | 1.205 | 1.21 | 1.219 | 1.227 | 1.235 | 1.244

CC1CCCCC1 + CC(C)O
viscosity [mPa·s], [1], 100 kPa
Details | x1 = 0.081 | x1 = 0.1601 | x1 = 0.2401 | x1 = 0.35 | x1 = 0.44 | x1 = 0.5602 | x1 = 0.65 | x1 = 0.7401 | x1 = 0.8501 | x1 = 0.9403
293.15 K | 1.88 | 1.47 | 1.17 | 0.89 | 0.78 | 0.72 | 0.73 | 0.75 | 0.77 | 0.76
298.15 K | 1.65 | 1.33 | 1.08 | 0.87 | 0.76 | 0.71 | 0.7 | 0.7 | – | 0.71
303.15 K | – | 1.18 | 0.98 | 0.81 | 0.73 | 0.7 | 0.69 | 0.68 | 0.68 | 0.67
308.15 K | 1.26 | 1.05 | 0.89 | 0.74 | 0.67 | 0.64 | 0.63 | 0.63 | 0.64 | 0.62
313.15 K | 1.1 | 0.92 | 0.79 | 0.65 | 0.6 | 0.58 | 0.57 | 0.58 | 0.59 | 0.6
318.15 K | 0.97 | 0.82 | 0.7 | 0.6 | 0.55 | 0.54 | 0.54 | 0.55 | 0.56 | 0.55
323.15 K | 0.84 | 0.69 | 0.58 | 0.49 | 0.46 | 0.46 | 0.47 | 0.49 | 0.51 | 0.52

CC1CCCCC1 + C1CCCCC1
[1], 303.15 K, 101 kPa
Details | viscosity [mPa·s]
x2 = 0.0996 | 0.6425
x2 = 0.1991 | 0.6465
x2 = 0.2949 | 0.6574
x2 = 0.3948 | 0.6697
x2 = 0.497 | 0.6849
x2 = 0.6005 | 0.7041
x2 = 0.699 | 0.7258
x2 = 0.7978 | 0.7519
x2 = 0.8955 | 0.7854

Cc1cccc([N+](=O)[O-])c1 + C1CCCCC1
[1], 303.15 K, 101.33 kPa
Details | viscosity [mPa·s]
x1 = 0.206 | 0.93
x1 = 0.38 | 1.03
x1 = 0.593 | 1.25
x1 = 0.801 | 1.54

CCCCCCCCCBr + ClC(Cl)(Cl)Cl
[1], 101 kPa
Details | viscosity [mPa·s]
297.75 K, x1 = 0.0486 | 0.9597
297.75 K, x1 = 0.0978 | 1.013
297.75 K, x1 = 0.1959 | 1.12
297.75 K, x1 = 0.3924 | 1.327
297.75 K, x1 = 0.5939 | 1.527
297.75 K, x1 = 0.7974 | 1.744
303.55 K, x1 = 0.0959 | 0.926
303.55 K, x1 = 0.2498 | 1.086
303.55 K, x1 = 0.3966 | 1.22
303.55 K, x1 = 0.5928 | 1.381
303.55 K, x1 = 0.7755 | 1.526
313.65 K, x1 = 0.0515 | 0.7651
313.65 K, x1 = 0.0985 | 0.8039
313.65 K, x1 = 0.1952 | 0.8852
313.65 K, x1 = 0.3592 | 1.028
313.65 K, x1 = 0.5926 | 1.189
313.65 K, x1 = 0.7767 | 1.301

C1=CCCCC1 + ClC(Cl)(Cl)Cl
[1], 303.15 K, 101 kPa
Details | viscosity [mPa·s]
x1 = 0.1014 | 0.875
x1 = 0.2018 | 0.839
x1 = 0.3213 | 0.8
x1 = 0.4018 | 0.775
x1 = 0.5046 | 0.74
x1 = 0.5562 | 0.722
x1 = 0.6526 | 0.688
x1 = 0.7514 | 0.653
x1 = 0.9049 | 0.603

CC1CCCCC1 + CCCCCCCC
viscosity [mPa·s], [1], 101 kPa
Details | 293.15 K | 298.15 K | 303.15 K | 308.15 K
x1 = 0.0401 | 0.5414 | 0.5075 | 0.482 | –
x1 = 0.1044 | – | 0.524 | 0.496 | 0.468
x1 = 0.1998 | 0.5583 | 0.5193 | 0.4944 | –
x1 = 0.2066 | – | 0.535 | 0.504 | 0.474
x1 = 0.2801 | 0.5689 | 0.5283 | 0.5018 | –
x1 = 0.3045 | – | 0.543 | 0.512 | 0.481
x1 = 0.3514 | 0.5781 | 0.5367 | 0.5067 | –
x1 = 0.4068 | – | 0.557 | 0.525 | 0.493
x1 = 0.4282 | 0.5879 | 0.5477 | 0.5161 | –
x1 = 0.5043 | – | 0.57 | 0.537 | 0.504
x1 = 0.6015 | – | 0.586 | 0.552 | 0.518
x1 = 0.6051 | 0.6189 | 0.5761 | 0.5389 | –
x1 = 0.6759 | 0.634 | 0.5912 | 0.5529 | –
x1 = 0.7015 | – | 0.603 | 0.567 | 0.532
x1 = 0.7572 | 0.6552 | 0.6123 | 0.5712 | –
x1 = 0.8023 | – | 0.624 | 0.587 | 0.55
x1 = 0.8382 | 0.6791 | 0.6323 | 0.5918 | –
x1 = 0.8984 | – | 0.646 | 0.607 | 0.568
x1 = 0.9197 | 0.7023 | 0.6539 | 0.6124 | –
x2 = 0.0861 | – | 0.655 | – | –
x2 = 0.1756 | – | 0.633 | – | –
x2 = 0.3246 | – | 0.602 | – | –
x2 = 0.4674 | – | 0.577 | – | –
x2 = 0.6154 | – | 0.559 | – | –
x2 = 0.7785 | – | 0.526 | – | –
x2 = 0.7797 | – | 0.535 | – | –
